This note sets out measurements from patent publication EP0934940A1, “CYTOKINE PRODUCTION INHIBITORS, TRIAZEPINE COMPOUNDS, AND INTERMEDIATES THEREOF” (Japan Tobacco Inc., priority 1996, dated 1997).

Assay [1] deals with TNF-α. Nature of the assay: Inhibitory activity on TNF-α production from LPS-stimulated human PBMC (ELISA). It counts as cell-based. On the procedure: (§1) Inhibitory activity on cytokine production from human PBMC (peripheral blood mononuclear cell)
(§2) PBMC fractions were isolated from human blood using a mono-poly resolving medium. The cells (PBMC) were cultured in 5% FCS (fetal calf serum)/RPMI1640 medium. Thereafter, the test compound was added to the final concentration of 0.001-10 µM, and LPS (lipopolysaccharide) was added to the final concentration of 10 µg/ml. After incubatioin for 24 hours, the supernatant was separated and freeze stocked at -80°C.
(§3) On the day of experiment, the supernatant was thawed and the production amount of cytokine was measured by ELISA. IL-6 was assayed using [(h)IL-6] human, ELISA system (Amersham); TNF-α was assayed using [(h)TNF-α] human, ELISA system (Amersham); GM-CSF was assayed using human GM-CSF immunoassay (R&D systems); and IL-8 was assayed using human IL-8 immunoassay (R&D systems). The determination method followed the method of each kit. The results are expressed in IC50.

Assay [2] deals with IL-6. Put plainly: Inhibitory activity on in vivo IL-6 production by LPS stimulation. Conditions: male ICR mice, LPS stimulation i.v., test compound 10 mg/kg p.o. at the same time, blood two hours later, relative to 0.5% CMC-Na group; for inhibition in vivo at 10 mg/kg: Mus musculus, po, 2 h, read-out: Inhibtion (%) of plasma IL-6 production (10 mg/kg, p.o.). Here is the method:
Inhibitory activity on in vivo IL-6 production by LPS stimulation
LFS (0.3 mg/kg) was intravenously administered to male ICR mice (6-week-old) fasted for 24 hours. At the same time, the test compound suspended in 0.5% CMC-Na ( carboxymethylcellulose sodium) was orally administered at the dose of 10 mg/kg.
Two hours later, blood was taken from eyegrounds. The blood was centrifuged, and the plasma fraction was diluted and quantitatively assayed for IL-6 in blood by ELISA (Endogen EM-IL6). The inhibitory percentage of the group administered with the test compound was expressed relative to the amount of IL-6 in blood of the cup administered with 0.5% CMC-Na.

Assay [3] concerns IL-6. Put plainly: Inhibitory activity on IL-6 production from LPS-stimulated human PBMC (ELISA). It counts as cell-based. Conditions: 24 h. On the procedure:
as §1, §2, §3

The next assay deals with Adjuvant arthritis (AIA). Put plainly: Effects on rat adjuvant arthritis (hind limb edema). It counts as in vivo. The settings on record: Lewis rats, 10 mg/kg p.o. once a day for 28 days from day 0, hind limb edema at day 28, mean±standard error, **p < 0.01. On the procedure:
Effects on rat adjuvant arthritis
Lewis rats (5-week-old, Charles River Japan, Inc.) were used for the test. Adjuvant arthritis (AIA) was induced by injection (0.5 mg) of Mycobacterium butyricum (Difco) suspended in paraffin oil, from the root of the tail at day 0. The volume of the hind limb was measured with time after the injection of adjuvant. The test compound was suspended in 0.5% HPMC (hydroxypropylmethycellulose) and orally administered at the dose of 10 mg/kg once a day for 28 days from day 0. The suppression of edema of hind limb at day 28 was calculated as follows. Suppression (%) = 100 ×((AIA treated group-AIA control group))/((normal control group-AIA control group)) [formula]
The results are shown in mean±standard error and tested by Student-test. The result was significant when p value was less than 0.05.

The next assay has as its system IL-2. Nature of the assay: Inhibitory activity on IL-2 production in concanavalin A-stimulated spleen cells. The settings on record: Balb/c mouse spleen cells, 5 µg/ml concanavalin A, 24 hours, EIA. Type of assay: cell-based, Balb/c mice. Here is the method:
(§4) Inhibitory activity on IL-2 and IFNγ production
(§5) The spleen cells obtained from 9-week-old Balb/c mice (Charles River Japan, Inc.) was suspended in RPMI-1640 medium supplemented with 10% FCS, at 4 × 10^6 cells/ml. The suspended cells were incubated in a 96 well plate (0.25 ml per well) in the presence of 5 µg/ml concanavalin A. The cells were cultured with or without addition of various concentrations of test compounds. After 24 hours' incubation, the culture broth was taken for assay of cytokine and preserved at -80°C. The concentrations of IL-2 and IFNγ in the culture broth were measured using an EIA kit (perSeptive Diagnostic) according to the attached protocol. The results are expressed in IC50.

Another assay deals with GM-CSF. Put plainly: Inhibitory activity on GM-CSF production from LPS-stimulated human PBMC (immunoassay). Type of assay: cell-based. The settings on record: 24 h, read-out: GM-CSF IC50 (µM). Here is the method:
as §1, §2, §3

A further assay deals with IL-8. Nature of the assay: Inhibitory activity on IL-8 production from LPS-stimulated human PBMC (immunoassay). Type of assay: cell-based. The settings on record: 24 h, read-out: IL-8 IC50 (µM). Here is the method: as §1, §2, §3
A further assay has as its system IFNγ. Nature of the assay: Inhibitory activity on IFNγ production in concanavalin A-stimulated spleen cells. The settings on record: Balb/c mouse spleen cells, 5 µg/ml concanavalin A, 24 hours, EIA. Type of assay: cell-based, Balb/c mice. Here is the method:
as §4, §5

Assay [4] concerns TNF-α. Nature of the assay: Inhibitory activity on in vivo TNF-α production by LPS stimulation. The settings on record: male ICR mice, 30 mg/kg p.o. 30 minutes before LPS 0.3 mg/kg i.v., blood one hour after LPS, relative to 0.5% CMC-Na group. Here is the method:
Inhibitory activity on in vivo TNF-α production by LPS stimulation
The test compound suspended in 0.5% CMC-Na (carboxymethylcellulose sodium) was orally administered at the dose of 30 mg/kg to male ICR mice (6-week-old) fasted for 24 hours. At 30 minutes after oral administration, LPS was intravenously administered at the dose of 0.3 mg/kg. At one hour after LSP administration, blood was taken from the heart. The TNF-α in plasma was assayed by ELISA (Genzyme). The suppression of TNF-α production of the group administered with test compounds was calculated by the following formula. Inhibition (%) =[1-(test compound administered group)/(0.5% CMC-Na administered group)]× 100 [formula]

The mark [5] stands for this setting: Homo sapiens, PBMC, 24 h, human PBMC, LPS 10 µg/ml, incubation 24 hours, supernatant ELISA, read-out: TNF-α IC50.
Setting [6] is: human PBMC, LPS 10 µg/ml, incubation 24 hours, supernatant ELISA, read-out: IL-6 IC50.

Where a name gives a salt, the structure may show the parent alone. Read-outs that look alike come from different tables or passages of the source. A value given as a limit tells only on which side of the number the result lay.

With `Cc1nnc2n1-c1ccccc1C(c1ccc(Cl)cc1)=NN2Cc1ccc[n+]([O-])c1` [Example 1, 3-[6-(4-Chlorophenyl)-1-methyl-4H-2,3,4,5,10b-pentaazabenz[e]azulen-4-ylmethyl]pyridine-1-oxide], the IC50 is 0.1 µM in the assay on TNF-α [1] (setting [5]) and 0.13 µM with TNF-α [1] (human PBMC, LPS 10 µg/ml, incubation 24 hours, supernatant ELISA, read-out: TNF-α IC50). Also, the inhibition in vivo at 10 mg/kg in the assay on IL-6 [2] was 73%.
For the molecule `Cc1nnc2n1-c1ccccc1C(c1ccc(N)cc1)=NN2Cc1ccc(C#N)cc1` [Synthetic Example 192, 4-[4-(4-Cyanobenzyl)-1-methyl-4H-2,3,4,5,10b-pentaazabenz[e]azulen-6-yl]phenylamine hydrochloride], the IC50 came to 0.03 µM in the assay with IL-6 [3] (setting [6]) and 0.02 µM in the assay on TNF-α [1] (setting [5]). Also, in the assay on IL-6 [2], the inhibition in vivo at 10 mg/kg amounted to 67%.
`Cc1ccc2c(c1)-n1c(C)nnc1N(Cc1ccncc1)N=C2c1ccccc1` [Synthetic Example 97, 1,9-Dimethyl-6-phenyl-4-(pyridin-4-ylmethyl)-4H-2,3,4,5,10b-pentaazabenz[e]azulene]: in the assay with IL-6 [2], the inhibition in vivo at 10 mg/kg worked out at 98%.
Consider `Cc1nnc2n1-c1ccccc1C(c1ccc(Cl)cc1)=NN2Cc1cccnc1` [compound 19], for which the “Suppression (%) of edema” value with Adjuvant arthritis (AIA) is listed as 72.7±3.3** %. In addition, the IC50 is 0.24 µM in the assay on IL-2, 0.05 µM with GM-CSF, 0.26 µM in the assay on IL-8 and 0.12 µM in the assay on IFNγ. In addition, the “Inhibition (%) of plasma TNF-α production (30 mg/kg, p.o.)” value in the assay with TNF-α [4] stood at 51%.
For `CCc1cc2c(s1)-n1c(C)nnc1N(Cc1ccncc1)N=C2c1ccccc1` [Synthetic Example 127, 2-Ethyl-9-methyl-4-phenyl-6-(pypidin-4-ylmethyl)-6H-5,6,7,8,9a-pentaazathieno[2,3-e]azulene], the “Inhibtion (%) of plasma IL-6 production (10 mg/kg, p.o.)” value (“Inhibtion (%) … (10 mg/kg, p.o.)” below) with IL-6 [2] is on record as 83%.
Consider `Cc1nnc2n1-c1ccccc1C(c1ccc(N)cc1)=NN2Cc1ccc(Cl)cc1` [Synthetic Example 191, 4-[4-(4-Chlorobenzyl)-1-methyl-4H-2,3,4,5,10b-pentaazabenz[e]azulen-6-yl]phenylamine hydrochloride], for which the IC50 in the assay on IL-6 [3] (setting [6]) and in the assay with TNF-α [1] (setting [5]) was 0.001 µM in each case. In addition, in the assay with IL-6 [2], the inhibition in vivo at 10 mg/kg was determined as 62%.
As to `Cc1cc2c(s1)-n1c(C)nnc1N(Cc1ccncc1)N=C2c1ccccc1` [Synthetic Example 121, 2,9-Dimethyl-4-phenyl-6-(pyridin-4-ylmethyl)-6H-5,6,7,8,9a-pentaazathieno[2,3-e]azulene], the inhibition in vivo at 10 mg/kg with IL-6 [2] was determined as 91%.
On the same count and under the same terms, as for `Cc1cc2c(s1)-n1c(C)nnc1N(Cc1ccc(C#N)cc1)N=C2c1ccccc1` [Synthetic Example 122, 6-(4-Cyanobenzyl)-2,9-dimethyl-4-phenyl-6H-5,6,7,8,9a-pentaazathieno[2,3-e]azulene], the figure is 71%.
Regarding `Cc1nnc2n1-c1ccccc1C(c1ccc(N)cc1)=NN2Cc1ccc([N+](=O)[O-])cc1` [Synthetic Example 193, 4-[1-Methyl-4-(4-nitrobenzyl)-4H-2,3,4,5,10b-pentaazabenz[e]azulen-6-yl]phenylamine hydrochloride], the IC50 in the assay on IL-6 [3] (setting [6]) is less than 0.001 µM; in the assay on TNF-α [1] (setting [5]), 0.001 µM. In addition, the inhibition in vivo at 10 mg/kg in the assay on IL-6 [2] came to 67%.
Regarding `Cc1nnc2n1-c1ccc([N+](=O)[O-])cc1C(c1ccccc1)=NN2Cc1ccncc1` [Synthetic Example 102, 1-Methyl-8-nitro-6-phenyl-4-(pyridin-4-ymethyl)-4H-2,3,4,5,10b-pentaazabenz[e]azulene], in the assay with IL-6 [2], the “Inhibtion (%) … (10 mg/kg, p.o.)” value is 78%.
As for `Cc1nnc2n1-c1ccccc1C(c1ccccc1)=NN2Cc1ccc(C#N)cc1` [Synthetic Example 111, 4-(4-Cyanobenzyl)-1-methyl-6-phenyl-4H-2,3,4,5,10b-pentaazabenz[e]azulene], in the assay with IL-6 [2], the inhibition in vivo at 10 mg/kg is 62%.
Same read-out and setting: as for `Cc1sc2c(c1C)C(c1ccc(Cl)cc1)=NN(Cc1ccc(C#N)cc1)c1nnc(C)n1-2` [Synthetic Example 115, 4-(4-Chlorophenyl)-6-(4-cyanobenzyl)-2,3,9-trimethyl-6H-5,6,7,8,9a-pentaazathieno[2,3-e]azulene], the figure is 75%.
Consider `Cc1cc2c(s1)-n1c(C)nnc1N(Cc1ccc(-c3nnnn3C)cc1)N=C2c1ccccc1` [Example 16], for which the IC50 with IL-6 [3] (read-out: IL-6 IC50 (µM), human PBMC, LPS 10 µg/ml, incubation 24 hours, supernatant ELISA) came to 0.3 µM; with TNF-α [1] (Homo sapiens, PBMC, 24 h, read-out: TNF-α IC50 (µM), human PBMC, LPS 10 µg/ml, incubation 24 hours, supernatant ELISA), 0.06 µM. Further, in the assay on IL-6 [2], the “Inhibtion (%) … (10 mg/kg, p.o.)” value was 84%.
`CCc1cc2c(s1)-n1c(C)nnc1N(Cc1ccncc1)N=C2c1ccc(Cl)cc1` [Synthetic Example 118, 4-(4-Chlorophenyl)-2-ethyl-9-methyl-6-(pyridin-4-ylmethyl)-6H-5,6,7,8,9a-pentaazathieno[2,3-e]azulene]: in the assay on IL-6 [2], the inhibition in vivo at 10 mg/kg was determined as 75%.
The same measure, in the same setting: as for `Cc1nnc2n1-c1ccccc1C(c1ccccc1)=NN2Cc1ccncc1` [Synthetic Example 95, 1-Methyl-6-phenyl-4-(pyridin-4-ylmethyl)-4H-2,3,4,5,10b-pentaazabenz[e]azulene], the figure is 78%.
Regarding `Cc1nnc2n1-c1ccccc1C(c1ccc(Br)cc1)=NN2Cc1ccc(Br)cc1` [Synthetic Example 109, 4-(4-Bromobenzyl)-6-(4-bromophenyl)-1-methyl-4H-2,3,4,5,10b-pentaaabenz[e]azulene], the “Inhibtion (%) … (10 mg/kg, p.o.)” value in the assay with IL-6 [2] is 51%.
